US4175125A, “Method for treating methicillin resistant staphylococcus aureus” (Eli Lilly and Company, priority 1978, dated 1979)
Converted amounts (≈) assume the structure as drawn.

Key:
[1] = tested on: Staphylococcus aureus cultures; assay: Agar dilution susceptibility test, phenylthioacetyl cephalosporins vs methicillin resistant S. aureus (Example 9); assay type: cell-based; conditions: for MIC: Staphylococcus aureus, read-out: MIC
Excerpt: This example compares the antibiotic activities of three known compounds, methicillin, cephalothin, and cephaloridine, with three compounds from the above examples, in terms of minimum inhibitory concentration (MIC) values in microgram/milliliter units against various isolates of Staphylococcus aureus cultures. The culture numbers and the procedures used to obtain the reported data are disclosed by W. E. Wick and D. A. Preston in their article "Heterogeneous Methicillin-Resistant Staphylococcus Aureus" which appeared in Progress in Antimicrobial And Anticancer Chemotherapy, Proceedings of the 6th International Congress of Chemotherapy, Volume, 1, U. of Tokyo Press, Tokyo, (1970). In these agardilution susceptibility tests, the inocula were diluted to 10^3 bacteria per spot. Cultures 3055 (benzylpenicillin sensitive) and H232 (benzylpenicillin-resistant) are controls. The remaining cultures are methicillin-resistant, and, except for 3136, are clinical isolates. Culture 3136 is a 4th transfer laboratory selected mutant.

[2] = tested on: Staphylococcus aureus cultures; assay: Broth dilution MIC in trypticase soy broth, low and high NaCl (Example 10); assay type: cell-based; conditions: Staphylococcus aureus, TSB, read-out: MIC
Experimental: This example compares the antibiotic activities of methicillin, cephalothin and cephaloridine with the compounds of Examples 1, 2 and 3, in broth dilution tests. The MIC values, in μg/ml., are against the same Staphylococcus aureus cultures described in Example 9, except that in this example the cultures were grown in trypticase soy broth (TSB). Growing the cultures in two broth cultures, one having a low (0.5 percent) sodium chloride content and one having a high (5.0 percent) sodium chloride content is said to assist in identifying the methicillin-resistant cultures from those which are not methicillin-resistant. […] See Chabbert, Y. A., 1967 Postgrad. Med. J., 43 (suppl); 40-46. One expects that similar changes in MIC values for this type of culture to other β-lactam antibiotics, e.g., various penicillins and cephalosporins, to have similar implications. […] That is, methicillin-resistant S.aureus cultures are susceptible to the cephalosporin antibiotics used in this invention.

[3] = culture 3130, table part marked b
[4] = culture 3130, table part marked c
[5] = culture 3131, table part marked b
[6] = culture 3131, table part marked c
[7] = culture 3134, table part marked b
[8] = culture 3134, table part marked c
[9] = culture 3135, table part marked b
[10] = culture 3135, table part marked c
[11] = culture 3136, table part marked b
[12] = culture 3136, table part marked c
[13] = culture 3137, table part marked b
[14] = culture 3137, table part marked c
[15] = culture 3138, table part marked b
[16] = culture 3138, table part marked c
[17] = culture 3139, table part marked b
[18] = culture 3139, table part marked c
[19] = culture (Seattle) 966, table part marked b
[20] = culture (Seattle) 966, table part marked c
[21] = culture S61, table part marked b
[22] = culture S61, table part marked c

MIC ([1]; culture 3055 (control, benzylpenicillin sensitive), table part marked b): < 0.06 µg/mL | MIC ([1]; culture 3055 (control, benzylpenicillin sensitive), table part marked c): < 0.06 µg/mL | MIC [1, 3]: 0.5 µg/mL (≈ 1.02 µM) | MIC [1, 4]: 1 µg/mL (≈ 2.04 µM) | MIC [1, 5]: 1 µg/mL (≈ 2.04 µM) | MIC [1, 6]: 1 µg/mL (≈ 2.04 µM) | MIC ([1]; culture 3132, table part marked b): 0.5 µg/mL (≈ 1.02 µM) | MIC ([1]; culture 3132, table part marked c): 0.25 µg/mL (≈ 0.509 µM) | MIC ([1]; culture 3133, table part marked b): 0.5 µg/mL (≈ 1.02 µM) | MIC ([1]; culture 3133, table part marked c): 1 µg/mL (≈ 2.04 µM) | MIC [1, 7]: 1 µg/mL (≈ 2.04 µM) | MIC [1, 8]: 0.5 µg/mL (≈ 1.02 µM) | MIC [1, 9]: 0.5 µg/mL (≈ 1.02 µM) | MIC [1, 10]: 0.25 µg/mL (≈ 0.509 µM) | MIC [1, 11]: 0.5 µg/mL (≈ 1.02 µM) | MIC [1, 12]: 0.5 µg/mL (≈ 1.02 µM) | MIC [1, 13]: 2 µg/mL (≈ 4.07 µM) | MIC [1, 14]: 2 µg/mL (≈ 4.07 µM) | MIC [1, 15]: 1 µg/mL (≈ 2.04 µM) | MIC [1, 16]: 0.5 µg/mL (≈ 1.02 µM) | MIC [1, 17]: 1 µg/mL (≈ 2.04 µM) | MIC [1, 18]: 0.25 µg/mL (≈ 0.509 µM) | MIC [1, 19]: 0.5 µg/mL (≈ 1.02 µM) | MIC [1, 20]: 0.25 µg/mL (≈ 0.509 µM) | MIC ([1]; culture H232 (control, benzylpenicillin-resistant), table part marked b): < 0.06 µg/mL | MIC ([1]; culture H232 (control, benzylpenicillin-resistant), table part marked c): < 0.06 µg/mL | MIC ([1]; culture Kavarmark 1138501, table part marked b): 0.5 µg/mL (≈ 1.02 µM) | MIC ([1]; culture Kavarmark 1138501, table part marked c): 0.5 µg/mL (≈ 1.02 µM) | MIC [1, 21]: 0.5 µg/mL (≈ 1.02 µM) | MIC [1, 22]: 1 µg/mL (≈ 2.04 µM) | MIC ([2]; culture 3055 (control), table part marked b): 0.06 µg/mL (≈ 0.122 µM) | MIC ([2]; culture 3055 (control), table part marked c): 0.06 µg/mL (≈ 0.122 µM) | MIC [2, 3]: 0.5 µg/mL (≈ 1.02 µM) | MIC [2, 4]: 4 µg/mL (≈ 8.14 µM) | MIC [2, 5]: 1 µg/mL (≈ 2.04 µM) | MIC [2, 6]: 2 µg/mL (≈ 4.07 µM) | MIC ([2]; culture 3132 (first column so headed), table part marked b): < 0.5 µg/mL | MIC ([2]; culture 3132 (first column so headed), table part marked c): 2 µg/mL (≈ 4.07 µM) | MIC ([2]; culture 3132 (second column so headed), table part marked b): < 0.5 µg/mL | MIC ([2]; culture 3132 (second column so headed), table part marked c): 2 µg/mL (≈ 4.07 µM) | MIC [2, 7]: 1 µg/mL (≈ 2.04 µM) | MIC [2, 8]: 4 µg/mL (≈ 8.14 µM) | MIC [2, 9]: < 0.5 µg/mL | MIC [2, 10]: 2 µg/mL (≈ 4.07 µM) | MIC [2, 11]: 0.5 µg/mL (≈ 1.02 µM) | MIC [2, 12]: 2 µg/mL (≈ 4.07 µM) | MIC [2, 13]: 2 µg/mL (≈ 4.07 µM) | MIC [2, 14]: 4 µg/mL (≈ 8.14 µM) | MIC [2, 15]: 1 µg/mL (≈ 2.04 µM) | MIC [2, 16]: 1 µg/mL (≈ 2.04 µM) | MIC [2, 17]: 1 µg/mL (≈ 2.04 µM) | MIC [2, 18]: 1 µg/mL (≈ 2.04 µM) | MIC [2, 19]: 0.5 µg/mL (≈ 1.02 µM) | MIC [2, 20]: 2 µg/mL (≈ 4.07 µM) | MIC ([2]; culture H232 (control), table part marked b): 0.12 µg/mL (≈ 0.244 µM) | MIC ([2]; culture H232 (control), table part marked c): 0.25 µg/mL (≈ 0.509 µM) | MIC ([2]; culture Kavarnick 1138501, table part marked b): 0.5 µg/mL (≈ 1.02 µM) | MIC ([2]; culture Kavarnick 1138501, table part marked c): 2 µg/mL (≈ 4.07 µM) | MIC [2, 21]: 2 µg/mL (≈ 4.07 µM) | MIC [2, 22]: 2 µg/mL (≈ 4.07 µM) | MIC ([2]; culture S, table part marked b): 2 µg/mL (≈ 4.07 µM) | MIC ([2]; culture S, table part marked c): 2 µg/mL (≈ 4.07 µM)
Structure (SMILES): CC(=O)OCC1=C(C(=O)O)N2C(=O)C(NC(=O)CSc3ccc(Cl)c(Cl)c3)C2SC1 (stereo not drawn) [Example 1, 7-(3,4-dichlorophenylthioacetamido)cephalosporanic acid]
effectiveness in in vitro tests vs methicillin, cephalothin and cephaloridine ([1]; various cultures of methicillin-resistant Staphylococcus aureus): substantially more effective than methicillin, cephalothin, and cephaloridine
